Laboratory results: patent US20220380347A1, “INHIBITORS OF CYSTEINE PROTEASES AND METHODS OF USE THEREOF” (Pardes Biosciences, Inc., priority 2020, published 2022)
Where two headings read alike, the source gives them in different places.

Experiments:
229E Mpro = 229E Mpro (Human coronavirus 229E, UniProt P0C6X1); test: 229E Mpro enzymatic assay (standard methods, SARS-CoV2 Mpro assay given as exemplary); format: biochemical, human coronavirus (HCov) 229E
Method in brief: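 IC50 for 229E Mpro by standard methods; exemplary SARS-CoV-2 protocol used C-His6-tagged Mpro from E. coli, 25 nM enzyme, 25 μM substrate (Km 13.5 μM), in Tris-HCl pH 7.3, NaCl, EDTA, TCEP, 0.1% BSA. Inhibition normalised to no-compound and full-effect controls; four-parameter fit.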

[1] = target: COVID-19 (nCoV-2019, SARS-CoV2) Mpro (Severe acute respiratory syndrome coronavirus 2, UniProt P0DTD1); test: COVID-19 (nCoV-2019, SARS-CoV2) Mpro enzymatic assay; format: biochemical; details: 25 μM substrate
HCov OC43 = test: HCoV OC43 cytopathic effect (CPE) assay, CellTiter Glo; format: cell-based, human coronavirus (HCov) OC43; details: Betacoronavirus 1, OC43, read-out: OC43 IC50 (uM) MEDIAN, median
[2] = 25 nM Mpro, read-out: COVID-19 Mpro IC50

Chain of 229E Mpro (P0C6X1 2966-3267): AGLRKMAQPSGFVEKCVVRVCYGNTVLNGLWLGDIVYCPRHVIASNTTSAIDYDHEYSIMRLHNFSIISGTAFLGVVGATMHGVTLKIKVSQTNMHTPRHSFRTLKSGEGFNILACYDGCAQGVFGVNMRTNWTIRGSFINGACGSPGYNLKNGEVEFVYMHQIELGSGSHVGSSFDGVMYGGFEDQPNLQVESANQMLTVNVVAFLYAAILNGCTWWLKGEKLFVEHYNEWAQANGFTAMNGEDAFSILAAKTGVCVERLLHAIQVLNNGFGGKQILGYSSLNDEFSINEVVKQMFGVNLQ

Structure (SMILES)	EC50 (229E Mpro; 229E Mpro EC50)	IC50 [1, 2]	IC50 (HCov OC43)	EC50 (229E Mpro; read-out: 229E Mpro EC50)	IC50 ([1]; COVID-19 Mpro IC50, 25 nM Mpro)
CC(C)(C)OC(=O)N1CCN(C(=O)C(c2cccnc2)N(C(=O)[C@H]2CCCN2C#N)c2ccc(C(C)(C)C)cc2)CC1 (stereo partly drawn) [Compound 954b]	2 to 10 µM	2 to 10 µM	2 to 10 µM	–	–
CN1CN(C(=O)C(c2cccnc2)N(C(=O)[C@H]2CCCN2C#N)c2ccc(C(C)(C)C)cc2)CC1=O (stereo partly drawn) [Compound 962, (2R)—N-(4-(tert-butyl)phenyl)-1-cyano-N-(2-(3-methyl-4-oxoimidazolidin-1-yl)-2-oxo-1-(pyridin-3-yl)ethyl)pyrrolidine-2-carboxamide]	2 to 10 µM	10 to 30 µM	10 to 30 µM	–	–
CC(C)(C)c1ccc(N(C(=O)[C@H]2CCCN2C#N)C(C(=O)N2CCC(N)CC2)c2cccnc2)cc1 (stereo partly drawn) [Compound 966]	> 30 µM	> 30 µM	> 30 µM	–	–
CC(C)(C)OC(=O)NC1CCN(C(=O)C(c2cccnc2)N(C(=O)[C@H]2CCCN2C#N)c2ccc(C(C)(C)C)cc2)CC1 (stereo partly drawn) [Compound 966b]	2 to 10 µM	10 to 30 µM	10 to 30 µM	–	–
CN(C)C1CN(C(=O)C(c2cccnc2)N(C(=O)[C@H]2CCCN2C#N)c2ccc(C(C)(C)C)cc2)C1 (stereo partly drawn) [Compound 975, (2R)—N-(4-(tert-butyl)phenyl)-1-cyano-N-(2-(3-(dimethylamino)azetidin-1-yl)-2-oxo-1-(pyridin-3-yl)ethyl)pyrrolidine-2-carboxamide]	2 to 10 µM	10 to 30 µM	10 to 30 µM	–	–
Cc1ccncc1C(C(=O)NC1CCC(F)(F)CC1)N(C(=O)[C@H]1C[C@@](C)(O)CN1C#N)c1ccc(S(F)(F)(F)(F)F)cc1 (stereo partly drawn) [Compound 993c, (2R,4R)-1-cyano-N-[2-[(4,4-difluorocyclohexyl)amino]-1-(4-methyl-3-pyridyl)-2-oxo-ethyl]-4-hydroxy-4-methyl-N-[4-(pentafluoro-λ6-sulfanyl)phenyl]pyrrolidine-2-carboxamide]	< 2 µM	< 2 µM	2 to 10 µM	–	–
Cc1ccnc(C)c1C(C(=O)NC1CCC(F)(F)CC1)N(C(=O)[C@H]1C[C@@](C)(O)CN1C#N)c1ccc(S(F)(F)(F)(F)F)cc1 (stereo partly drawn) [Compound 997c, (2R,4R)-1-cyano-N-[2-[(4,4-difluorocyclohexyl)amino]-1-(2,4-dimethyl-3-pyridyl)-2-oxo-ethyl]-4-hydroxy-4-methyl-N-[4-(pentafluoro-λ^6-sulfanyl)phenyl]pyrrolidine-2-carboxamide]	< 2 µM	10 to 30 µM	2 to 10 µM	–	–
CC(C(=O)NC1CCC(F)(F)CC1)(c1cccnc1)N(C(=O)[C@H]1C[C@@](C)(O)CN1C#N)c1ccc(S(F)(F)(F)(F)F)cc1 (stereo partly drawn) [Compound 1077, (2R,4R)-1-cyano-N-[2-[(4,4-difluorocyclohexyl)amino]-1-methyl-2-oxo-1-(3-pyridyl)ethyl]-4-hydroxy-4-methyl-N-[4-(pentafluoro-λ^6-sulfanyl)phenyl]pyrrolidine-2-carboxamide]	< 2 µM	< 2 µM	< 2 µM	–	–
N#CN1C[C@H]2C[C@H]2[C@@H]1C(=O)N(c1ccc(S(F)(F)(F)(F)F)cc1)C(C(=O)NC1CCC(F)(F)CC1)c1cncc(F)c1 (stereo partly drawn) [Compound 1095b, (1R,2R,5S)-3-cyano-N-[2-[(4,4-difluorocyclohexyl)amino]-1-(5-fluoro-3-pyridyl)-2-oxo-ethyl]-N-[4-(pentafluoro-λ^6-sulfanyl)phenyl]-3-azabicyclo[3.1.0]hexane-2-carboxamide]	< 2 µM	< 2 µM	< 2 µM	–	–
N#CN1C2CCC1(C(=O)N(c1ccc(S(F)(F)(F)(F)F)cc1)C(C(=O)NC1CCC(F)(F)CC1)c1cncc(F)c1)CC2 (stereo not drawn) [Compound 1101, 7-cyano-N-[2-[(4,4-difluorocyclohexyl)amino]-1-(5-fluoro-3-pyridyl)-2-oxo-ethyl]-N-[4-(pentafluoro-λ6-sulfanyl)phenyl]-7-azabicyclo[2.2.1]heptane-1-carboxamide]	–	–	> 30 µM	2 to 10 µM	> 30 µM
O=C1CCCCC1C(=O)N(c1ccc(S(F)(F)(F)(F)F)cc1)C(C(=O)NC1CCC(F)(F)CC1)c1cncc(F)c1 (stereo not drawn) [Compound 1114]	2 to 10 µM	10 to 30 µM	> 30 µM	–	–
CO[C@@H]1C[C@H](C(=O)N(c2ccc(S(F)(F)(F)(F)F)cc2)C(C(=O)NC(C)C2CCCCN2)c2cccnc2)N(C#N)C1 (stereo partly drawn) [Compound 1123, (2R,4R)-1-cyano-4-methoxy-N-[2-oxo-2-[1-(2-piperidyl)ethylamino]-1-(3-pyridyl)ethyl]-N-[4-(pentafluoro-λ^6-sulfanyl)phenyl]pyrrolidine-2-carboxamide]	< 2 µM	< 2 µM	< 2 µM	–	–
O=C(NC1CCC(F)(F)CC1)C(c1cncc(F)c1)N(C(=O)C1CCC1(O)O)c1ccc(S(F)(F)(F)(F)F)cc1 (stereo not drawn) [Compound 1133a, N-[2-[(4,4-difluorocyclohexyl)amino]-1-(5-fluoro-3-pyridyl)-2-oxo-ethyl]-2,2-dihydroxy-N-[4-(pentafluoro-λ6-sulfanyl)phenyl]cyclobutanecarboxamide]	> 30 µM	> 30 µM	> 30 µM	–	–
COC1CN(C#N)C(C)(C(=O)N(c2ccc(S(F)(F)(F)(F)F)cc2)C(C(=O)NC2CCC(F)(F)CC2)c2cncc(F)c2)C1 (stereo not drawn) [Compound 1135b, 1-cyano-N-[2-[(4,4-difluorocyclohexyl)amino]-1-(5-fluoro-3-pyridyl)-2-oxo-ethyl]-4-methoxy-2-methyl-N-[4-(pentafluoro-λ^6-sulfanyl)phenyl]pyrrolidine-2-carboxamide]	> 30 µM	> 30 µM	> 30 µM	–	–
N#CN1CC2C[C@@]1(C(=O)N(c1ccc(S(F)(F)(F)(F)F)cc1)C(C(=O)NC1CCC(F)(F)CC1)c1cncc(F)c1)CO2 (stereo partly drawn) [Compound 1136b]	2 to 10 µM	2 to 10 µM	> 30 µM	–	–
CO[C@@H]1C[C@H](C(=O)N(c2ccc(S(F)(F)(F)(F)F)cc2)C(C(=O)N2CCN(C(=O)OC(C)(C)C)CC2)c2cccnc2)N(C#N)C1 (stereo partly drawn) [Compound 1149b, tert-butyl-4-[2-[N-[(2R,4R)-1-cyano-4-methoxy-pyrrolidine-2-carbonyl]-4-(pentafluoro-λ6-sulfanyl)anilino]-2-(3-pyridyl)acetyl]piperazine-1-carboxylate]	< 2 µM	< 2 µM	< 2 µM	–	–
C[C@@]1(O)C[C@H](C(=O)N(c2ccc(S(F)(F)(F)(F)F)cc2)C(C(=O)NC2CCC(F)(F)CC2)c2cccnc2F)N(C#N)C1 (stereo partly drawn) [Compound 1158, (2R,4R)-1-cyano-N-[2-[(4,4-difluorocyclohexyl)amino]-1-(2-fluoro-3-pyridyl)-2-oxo-ethyl]-4-hydroxy-4-methyl-N-[4-(pentafluoro-λ6-sulfanyl)phenyl]pyrrolidine-2-carboxamide]	< 2 µM	< 2 µM	< 2 µM	–	–
N#CN1CC(=O)NCC1C(=O)N(c1ccc(S(F)(F)(F)(F)F)cc1)C(C(=O)NC1CCC(F)(F)CC1)c1cncc(F)c1 (stereo not drawn) [Compound 1160, 1-cyano-N-[2-[(4,4-difluorocyclohexyl)amino]-1-(5-fluoro-3-pyridyl)-2-oxo-ethyl]-5-oxo-N-[4-(pentafluoro-λ^6-sulfanyl)phenyl]piperazine-2-carboxamide]	< 2 µM	< 2 µM	< 2 µM	–	–
CN1CC(C(=O)N(c2ccc(S(F)(F)(F)(F)F)cc2)C(C(=O)NC2CCC(F)(F)CC2)c2cncc(F)c2)N(C#N)CC1=O (stereo not drawn) [Compound 1161, 1-cyano-N-[2-[(4,4-difluorocyclohexyl)amino]-1-(5-fluoro-3-pyridyl)-2-oxo-ethyl]-4-methyl-5-oxo-N-[4-(pentafluoro-λ^6-sulfanyl)phenyl]piperazine-2-carboxamide]	< 2 µM	< 2 µM	< 2 µM	–	–
CO[C@@H]1C[C@H](C(=O)N(c2ccc(S(F)(F)(F)(F)F)cc2)C(C(=O)N2CCC3(COC3)C2)c2cccnc2)N(C#N)C1 (stereo partly drawn) [Compound 1174, (2R,4R)-1-cyano-4-methoxy-N-[2-(2-oxa-7-azaspiro[3.4]octan-7-yl)-2-oxo-1-(3-pyridyl)ethyl]-N-[4-(pentafluoro-λ^6-sulfanyl)phenyl]pyrrolidine-2-carboxamide]	< 2 µM	2 to 10 µM	< 2 µM	–	–
CO[C@@H]1C[C@H](C(=O)N(c2ccc(S(F)(F)(F)(F)F)cc2)C(C(=O)NCC(=O)N2CCCC2)c2cccnc2)N(C#N)C1 (stereo partly drawn) [Compound 1182, (2R,4R)-1-cyano-4-methoxy-N-[2-oxo-2-[(2-oxo-2-pyrrolidin-1-yl-ethyl)amino]-1-(3-pyridyl)ethyl]-N-[4-(pentafluoro-λ6-sulfanyl)phenyl]pyrrolidine-2-carboxamide]	< 2 µM	< 2 µM	< 2 µM	–	–
CO[C@@H]1C[C@H](C(=O)N(c2ccc(S(F)(F)(F)(F)F)cc2)C(C(=O)N2CCN(C)C(=O)C2)c2cccnc2)N(C#N)C1 (stereo partly drawn) [Compound 1188]	< 2 µM	2 to 10 µM	< 2 µM	–	–
CO[C@@H]1C[C@H](C(=O)N(c2ccc(S(F)(F)(F)(F)F)cc2)C(C(=O)NC2CCC(F)(F)CC2)c2cnccc2C#N)N(C#N)C1 (stereo partly drawn) [Compound 1200, (2R,4R)-1-cyano-N-[l-(4-cyano-3-pyridyl)-2-[(4,4-difluorocyclohexyl)amino]-2-oxo-ethyl]-4-methoxy-N-[4-(pentafluoro-λ6-sulfanyl)phenyl]pyrrolidine-2-carboxamide]	< 2 µM	< 2 µM	< 2 µM	–	–
